Here are results for eleven compounds from US7262003B2, “Plant test procedure to detect natural, semi-synthetic, synthetic compounds and physical stress factors through expression of distinct responses” (Council of Scientific and Industrial Research, priority 1998, dated 2007).

Series [1] has as its system Bacopa monnieri leaf, internode and twig cuttings. As to the kind of experiment: Response of leaf, internode and twig cutting explants to growth promoters (auxins, cytokinins) in MS 0 medium. To be noted: for Response observed, Cutting: MS 0 medium containing 1.0 mg/litre; for Response observed, Cutting / Response observed, Internode / Response observed, Leaf: recorded up to two weeks; for Response of leaf, internode and cuttings: MS 0 supplemented at 0.5 and 1.0 mg/litre. In kind it is in vivo. Here is the method:
Initially the experiments were designed to observe the response of leaf, internode and cuttings against growth promoters (auxins: 2,4-D & Indole acetic acid) and […] (cytokinins: 6-Benzyl amino purine & kinetin). The basal medium for studying the response was MS 0 (Murashige T and Skoog F, 1962, Physiol. Planta. 15: 473–497) supplemented with these growth regulators at the rates of 0.5 and 1.0 mg/litre along with a control of just the basal medium.
The basal medium for studying the response was MS 0 (Murashige T and Skoog F, 1962, Physiol. Planta. 15: 473–497) supplemented with test compounds along with a control of just the basal medium. Measured 0.5 ml medium was poured into 1.5 ml graduated microcentrifuge tubes. Into this, twig cutting of 2.5 cm were inoculated in 20 replicates for each type of medium. These inoculated tubes were put into a half transparent (top lid) box allowing air passage through sterile cotton plugs such that the medium containing portion of the tubes where roots would be initiating is inserted into the stand holes made from a thermocol sheet. Refer FIG. 1 of Sheet #1. […] Such boxes were incubated at normal ambient temperature of 25–28° C. with 14 hours light and 10 hours dark cycle.
To find out the effect of growth promoters such as Indole 3 acetic acid (IAA), 2,4-Dichlorophenoxy acetic acid (2,4-D), and cytokinins such as 6-Benzyl Amino Purine (6-BAP) and Kinetin, the leaf, internode and twig cuttings were inoculated into MS 0 medium containing […] of the above said compounds and the responses were recorded up to two weeks in terms of rooting, callusing and shoot regeneration (Table 1).

A further series has as its system Bacopa cultures. To be noted: in vivo; cited from earlier work.
The test system of series [2] is regenerants of Bacopa monniera. To be noted: cited from earlier work.
Series [3] has as its system Bacopa monnieri twig cuttings. The class given is in vivo.
Another series deals with Bacopa root tips. In kind it is in vivo, Bacopa monnieri.
For series [4], the system named is Avocado cv. Verde in vitro. To be noted: antibiotic in the plant growth medium; cited from earlier work.
Series [5] relates to Bacopa monnieri twigs. As to the kind of experiment: Cytotoxic/weedicidal effect: menthol in medium and Mentha arvensis oil sprayed on twigs. The class given is in vivo. To be noted: menthol added to the medium and oil sprayed on the twigs. Here is the method:
We also planned the experiments to determine if this procedure can depict a clear cut manifestation of cytotoxic/weedicidal effect of compounds. For this purpose we used a known essential oil of Mentha arvensis, which is rich in the toxic but useful component, menthol as the treatment. The procedure involved was same as in the above examples with the exception that menthol was added to the medium and oil was sprayed on these twigs which were inoculated into the medium. […] Refer to FIG. #4 of Sheet #2.

Series [6] deals with Bacopa monnieri twigs. Put plainly: Growth inhibitor test on twigs in basal MS media. The class given is in vivo. To be noted: after 10 days of inoculation. Here is the method: The basal medium for studying the response was MS 0 (Murashige T and Skoog F, 1962, Physiol. Planta. 15: 473–497) supplemented with test compounds along with a control of just the basal medium. Measured 0.5 ml medium was poured into 1.5 ml graduated microcentrifuge tubes. Into this, twig cutting of 2.5 cm were inoculated in 20 replicates for each type of medium. These inoculated tubes were put into a half transparent (top lid) box allowing air passage through sterile cotton plugs such that the medium containing portion of the tubes where roots would be initiating is inserted into the stand holes made from a thermocol sheet. Refer FIG. 1 of Sheet #1. This set up was helpful in preventing the light exposure to the root portion while at the same time aerial parts got sufficient light and aeration. Such boxes were incubated at normal ambient temperature of 25–28° C. with 14 hours light and 10 hours dark cycle. […] The earliest response was seen was on day 3 in the case of medium containing ¼th level of nitrogen followed by medium containing normal level of nitrogen, while in the case of zero nitrogen, initiation was observed only after 8 days. Thus, the medium with ¼ nitrogen level of standard MS basal medium was selected for root assays and was referred as MSR (rooting) medium.
The effects of growth inhibitors were also tested using the protocol as described in Example 1. […]

The mark [7] stands for this setting: 10 and 100 μg/ml in MSR, up to day 15.
The mark [8] stands for this setting: concentrations ranging from 1 to 100 μg/ml, 14 days.

“Also recorded” adds a separate entry of the source. Where two headings read alike, the source gives them in different places.

Take `O=C(O)COc1ccc(Cl)cc1Cl` [2,4-D, 2,4-Dichlorophenoxy acetic acid]: in series [1], the “Response observed, Cutting” value is “Aerial Root”; the “Response of leaf, internode and cuttings” value is reported as “small thick roots got initiated at the internodes”. In series [1] (MS 0 medium containing 1 mg/ml), the “Response observed, Internode” value was “Root Initiation; also recorded: Root Thickening; also recorded: Explant Swelling” and the “Response observed, Leaf” value was “Root Initiation; also recorded: Root Thickening; also recorded: Callus Initiation”.

Take `[Cl][Al]([Cl])[Cl]` [AlCl3]: in the series on Bacopa cultures, the “Concentration beyond which Bacopa cultures could not survive” value was 400 µM.

`c1ccc(CNc2ncnc3nc[nH]c23)cc1` [BAP, 6-Benzyl Amino Purine]: in series [1], the “Response observed, Cutting” value was “Root Initiation and Root”; the “Response of leaf, internode and cuttings” value is recorded as “green callus developed in all three explants followed by shoot regeneration”. For the same compound, in series [1] (MS 0 medium containing 1 mg/ml), the “Response observed, Internode” value was “Callus Initiation; also recorded: Shoot” and the “Response observed, Leaf” value is given as “Callus Initiation; also recorded: Shoot”. Besides, in series [1] (MS 0 medium containing 1 mg/ml, up to two weeks), the “Response of leaf and internodal explant” value is listed as “green callus has formed, followed by shoot regeneration”.

`[Cd]` [Cd, cadmium]: in series [2] (grown with additional supply of Cu), the Concentration tolerated result is recorded as “up to 100 μM”. The “Concentration beyond which regenerants did not survive” value in series [2] (in vivo) was 50 µM.

As for `O=C(O)Cc1c[nH]c2ccccc12` [IAA, Indole 3 acetic acid], in series [1], the “Response observed, Cutting” value is given as “Aerial Root”; the “Response of leaf, internode and cuttings” value was “profuse rooting”. Moreover, in series [1] (MS 0 medium containing 1 mg/ml), the “Response observed, Internode” value is on record as “Root Initiation” and the “Response observed, Leaf” value was “Root Initiation”.

Consider `c1coc(CNc2ncnc3[nH]cnc23)c1` [Kinetin], for which the “Response observed, Cutting” value in series [1] was “Root Initiation and Root”. Besides, in series [1] (MS 0 medium containing 1 mg/ml), the “Response observed, Internode” value is listed as “No Response” and the “Response observed, Leaf” value is “Root Initiation”.

`CC(=O)O[C@H]1C(=O)[C@@]2(C)[C@H]([C@H](OC(=O)c3ccccc3)[C@]3(O)C[C@H](OC(=O)[C@H](O)[C@@H](NC(=O)c4ccccc4)c4ccccc4)C(C)=C1C3(C)C)[C@]1(OC(C)=O)CO[C@@H]1C[C@@H]2O` [Taxol, taxol]: in series [3] (setting [7]), the Root initiation result is given as “inhibited the complete root initiation” and the “Visible effect on the aerial parts” value is recorded as “wilting of the leaves”. In series [3] (setting [8]), the Root initiation entry is “did not initiate the roots at all”; the “Shoot growth and health” value is “no shoot growth; also recorded: wilting and later withering”. In the series with Bacopa root tips (10 μg/ml), the “Effect on mitotic index (words)” value is reported as “significantly reduce the mitotic index” and the “Reduction of mitotic index compared to untreated control samples” value is 2.55 fold. Besides, in the series with Bacopa root tips (10 μg/ml, dipping 3 hours), the “Number of cells in phase Ana” value was 01, the “Number of cells in phase Meta” value was found to be 03, the “Number of cells in phase Pro” value is 01 and the “Number of cells in phase Telo” value was 00. Further, the “Mitotic Index” value in the series on Bacopa root tips (10 μg/ml, dipping 3 hours, 10 randomly selected fields) turned out to be 7.14 ± 1.52. Moreover, the “Effect on mitotic index (words)” value in the series with Bacopa root tips (10 μg/ml, listed as taxol) is given as “substantial reduction in the mitotic index”. Moreover, the “Cell division in the root tips” value in the series on Bacopa root tips (100 μg/ml) is given as “inhibited almost complete cell division”.

In the case of `O=C(N[C@H](CO)[C@H](O)c1ccc([N+](=O)[O-])cc1)C(Cl)Cl` [chloramphenicol], the “Toxicity to avocado (length of sprouts reduced)” value in series [4] is “toxic”.

For the compound `CC1CCC(C(C)C)C(O)C1` (centres unmarked) [menthol], in the series on Bacopa monnieri twigs [5], the “Spread of chlorophyll loss” value is reported as “within a week time covered whole twig”.

Turning to `CCn1cc(C(=O)O)c(=O)c2ccc(C)nc21` [nalidixic acid, Nalidixic acid], in series [4], the “Toxicity to avocado (length of sprouts reduced)” value was “toxic”. The “Root initiation and growth” value was “roots got initiated from the submerged nodes but their growth was less than the control” in the series on Bacopa monnieri twigs [6] (10 μg/ml); “very small roots arose from submerged node and their growth was completely arrested” with Bacopa monnieri twigs [6] (100 μg/ml).

Take `[H]/N=C(/N)N[C@H]1[C@H](O)[C@@H](O)[C@H](O[C@@H]2O[C@@H](C)[C@](O)(C=O)[C@H]2O[C@@H]2O[C@@H](CO)[C@H](O)[C@@H](O)[C@@H]2NC)[C@@H](N/C(N)=N\[H])[C@@H]1O` [streptomycin]: the “Toxicity to avocado (length of sprouts reduced)” value in series [4] was “toxic”.
